Results as given in US20240041042A1, “1-(PYRIDYL)-5-AZINYLPYRAZOLE DERIVATIVES, AND THEIR USE FOR CONTROL OF UNDESIRED PLANT GROWTH” (Bayer Aktiengesellschaft, priority 2020, published 2024).
Like-named read-outs stand apart in the source and are kept apart here.

Assays:
Format in all cases: in vivo
Setaria viridis (SETVI) [1] = assay: Post-emergence herbicidal action against SETVI
Procedure, shortened: (§1)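 Rates were 320 g/ha or below, applied as aqueous WP/EC spray with 0.5% additive (600 l/ha) onto one-leaf-stage plants. About 3 weeks later in the greenhouse, damage was scored visually against untreated plants on a 0–100% scale, where 100% means plants died.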

[2] = system: Polygonum convolvulus (POLCO); assay: Pre-emergence herbicidal action against POLCO
Procedure, shortened: (§2)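 Greenhouse pot trial: seeds sown, soil-covered, sprayed before emergence with compound in water (0.5% additive; 600 l/ha; ≤320 g/ha). Scoring visual, ~3 weeks, 0–100% scale vs untreated.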

[3] = system: Echinochloa crus-galli (ECHCG); assay: Pre-emergence herbicidal action against ECHCG
Procedure, shortened: as §2

Lolium rigidum (LOLRI) [4] = assay: Pre-emergence herbicidal action against LOLRI; conditions: dosage 320 g/ha
Procedure, shortened: as §2

Avena fatua (AVEFA) [5] = assay: Post-emergence herbicidal action against AVEFA; conditions: visual rating about 3 weeks after treatment
Procedure, shortened: as §1

[6] = system: Amaranthus retroflexus (AMARE); assay: Pre-emergence herbicidal action against AMARE; conditions: visual scoring after about 3 weeks vs untreated controls
Procedure, shortened: as §2

[7] = system: Abutilon theophrasti (ABUTH); assay: Pre-emergence herbicidal action against ABUTH; conditions: Dosage column 320 g/ha (title prints 3200 g/ha); scored visually after about 3 weeks; 100% = plants have died
Procedure, shortened: as §2

[8] = system: Alopecurus myosuroides (ALOMY); assay: Post-emergence herbicidal action against ALOMY; conditions: visual rating about 3 weeks after treatment vs untreated controls (100% = plants have died, 0% = like control plants)
Procedure, shortened: as §1

Lolium rigidum (LOLRI) [9] = assay: Post-emergence herbicidal action against LOLRI
Procedure, shortened: as §1

[10] = system: Alopecurus myosuroides (ALOMY); assay: Pre-emergence herbicidal action against ALOMY; conditions: scored visually after about 3 weeks, 100% = plants have died
Procedure, shortened: as §2

[11] = system: Verconica persica (VERPE); assay: Pre-emergence herbicidal action against VERPE; conditions: dosage 320 g/ha
Procedure, shortened: as §2

[12] = system: Pharbitis purpurea (PHBPU); assay: Pre-emergence herbicidal action against PHBPU
Procedure, shortened: as §2

[13] = system: Polygonum convolvulus (POLCO); assay: Post-emergence herbicidal action against POLCO
Procedure, shortened: as §1

[14] = system: Triticum aestivum (TRZAS); conditions: crop plant compatibility, 20 g/ha, effect vs untreated controls
Procedure, shortened: (§3)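 One-leaf-stage crops (2–3 wk post-sowing, sandy loam, greenhouse) sprayed on green parts; 0.5% additive, 600 l/ha water. Rated by eye ~3 wk later, % vs untreated; suffixes a/b/c mark different dosages.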

Oryza sativa (ORYSA) = conditions: crop plant compatibility
Procedure, shortened: as §3

Zea mays (ZEAMX) [15] = system: Zea mays (ZEAMX)
Procedure, shortened: as §3

[16] = system: Pharbitis purpurea (PHBPU); assay: Post-emergence herbicidal action against PHBPU
Procedure, shortened: as §1

Viola tricolor (VIOTR) [17] = assay: Pre-emergence herbicidal action against VIOTR
Procedure, shortened: as §2

[18] = system: Matricaria inodora (MATIN); assay: Post-emergence herbicidal action against MATIN; conditions: dosage 80 g/ha
Procedure, shortened: as §1

Setaria viridis (SETVI) [19] = assay: Pre-emergence herbicidal action against SETVI
Procedure, shortened: as §2

Avena fatua (AVEFA) [20] = assay: Pre-emergence herbicidal action against AVEFA; conditions: 320 g/ha, visual scoring after about 3 weeks vs untreated controls
Procedure, shortened: as §2

[21] = system: Amaranthus retroflexus (AMARE); assay: Post-emergence herbicidal action against AMARE
Procedure, shortened: as §1

[22] = system: Abutilon theophrasti (ABUTH); assay: Post-emergence herbicidal action against ABUTH; conditions: visual rating about 3 weeks after treatment vs untreated controls (100% = plants have died, 0% = like control plants)
Procedure, shortened: as §1

[23] = system: Verconica persica (VERPE); assay: Post-emergence herbicidal action against VERPE
Procedure, shortened: as §1

[24] = system: Matricaria inodora (MATIN); assay: Pre-emergence herbicidal action against MATIN
Procedure, shortened: as §2

[25] = system: Echinochloa crus-galli (ECHCG); assay: Post-emergence herbicidal action against ECHCG
Procedure, shortened: as §1

Zea mays (ZEAMX) [26] = conditions: pre-emergence, 80 g/ha, crop plant compatibility, in comparison to untreated controls
Procedure, shortened: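 Scoring: visual, % of untreated control, about 3 weeks after a pre-emergence application to the soil surface. Application used WP or EC formulations diluted in water with 0.5% additive at 600 l/ha; dosage levels are marked by suffixes a, b and c.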

Viola tricolor (VIOTR) [27] = assay: Post-emergence herbicidal action against VIOTR; conditions: 320 g/ha
Procedure, shortened: as §1

[28] = 80 g/ha, effect in comparison to untreated controls
[29] = 80 g/ha, visual rating about 3 weeks after treatment vs untreated controls (100% = plants have died, 0% = like control plants)

SMILES	Pre-emergence action against POLCO in % ([2]; dosage 320 g/ha) [%]	Pre-emergence action against ECHCG in % ([3]; dosage 80 g/ha) [%]	Pre-emergence action against ECHCG in % ([3]; dosage 320 g/ha) [%]	Pre-emergence action against LOLRI in % (Lolium rigidum (LOLRI) [4]) [%]	Pre-emergence action against AMARE in % ([6]; 80 g/ha) [%]	Pre-emergence action against AMARE in % ([6]; 320 g/ha) [%]	Pre-emergence action against ABUTH [7] [%]	Post-emergence action against ALOMY in % ([8]; 80 g/ha) [%]	Pre-emergence action against ALOMY ([10]; 80 g/ha) [%]	Pre-emergence action against ALOMY ([10]; 320 g/ha) [%]	Pre-emergence action against VERPE in % [11] [%]	Pre-emergence action against PHBPU in % ([12]; dosage 80 g/ha) [%]	Pre-emergence action against PHBPU in % ([12]; dosage 320 g/ha) [%]	Post-emergence action against POLCO in % ([13]; dosage 80 g/ha) [%]	Post-emergence action against ORYSA in % (Oryza sativa (ORYSA); [28]) [%]	Post-emergence action against PHBPU in % ([16]; dosage 80 g/ha) [%]	Pre-emergence action against VIOTR in % (Viola tricolor (VIOTR) [17]; 320 g/ha, Viola tricolor) [%]	Pre-emergence action against VIOTR in % (Viola tricolor (VIOTR) [17]; dosage 80 g/ha) [%]	Pre-emergence action against SETVI in % (Setaria viridis (SETVI) [19]; dosage 320 g/ha) [%]	Pre-emergence action against AVEFA in % (Avena fatua (AVEFA) [20]) [%]	further results
COC(=O)[C@H](C)COC(=O)COc1nn(-c2ccccn2)c(-c2cncc(F)c2)c1Cl [Example I-74]	100	80	100	100	90	100	90	100	80	100	100	90	90	90	10	90	100	90	100	80	Post-emergence action against SETVI in % (Setaria viridis (SETVI) [1]; dosage 80 g/ha): 80%; Post-emergence action against AVEFA in % (Avena fatua (AVEFA) [5]; 80 g/ha): 90%; Post-emergence action against LOLRI in % (Lolium rigidum (LOLRI) [9]; dosage 80 g/ha): 90%; Post-emergence action against TRZAS in % [14]: 0%; Post-emergence action against ORYSA in % (Oryza sativa (ORYSA); 20 g/ha, effect vs untreated controls): 0%; Post-emergence action against ZEAMX in % (crop plant compatibility) (Zea mays (ZEAMX) [15]; 20 g/ha, ZEAMX, effect in comparison to untreated controls): 10%; Post-emergence action against MATIN in % [18]: 90%; Pre-emergence action against SETVI in % (Setaria viridis (SETVI) [19]; dosage 80 g/ha): 90%; Post-emergence action against AMARE in % [21, 29]: 80%; Post-emergence action against ABUTH in % ([22]; 80 g/ha): 80%; Post-emergence action against VERPE in % ([23]; dosage 80 g/ha): 80%; Pre-emergence action against MATIN in % ([24]; dosage 80 g/ha): 90%; Pre-emergence action against MATIN in % ([24]; dosage 320 g/ha): 90%; Post-emergence action against ECHCG in % ([25]; dosage 80 g/ha): 90%
CCOC(=O)COc1nn(-c2nc(F)ccc2F)c(-c2ccc(F)nc2)c1Cl [Example I-315]	90	90	100	100	90	90	80	80	100	100	100	90	90	80	20	80	100	90	100	90	Post-emergence action against SETVI in % (Setaria viridis (SETVI) [1]; dosage 320 g/ha): 80%; Pre-emergence action against POLCO in % ([2]; dosage 80 g/ha): 80%; Post-emergence action against AVEFA in % (Avena fatua (AVEFA) [5]; 320 g/ha): 80%; Post-emergence action against ALOMY in % ([8]; 320 g/ha): 90%; Post-emergence action against LOLRI in % (Lolium rigidum (LOLRI) [9]; dosage 320 g/ha): 90%; Post-emergence action against POLCO in % ([13]; dosage 320 g/ha): 80%; Post-emergence action against ZEAMX in % (Zea mays (ZEAMX) [15]; crop plant compatibility, 80 g/ha, effect vs untreated controls): 20%; Post-emergence action against PHBPU in % ([16]; dosage 320 g/ha): 80%; Post-emergence action against AMARE in % [21, 29]: 80%; Post-emergence action against AMARE in % ([21]; 320 g/ha, visual rating about 3 weeks after treatment): 80%; Post-emergence action against ABUTH in % ([22]; 80 g/ha): 80%; Post-emergence action against ABUTH in % ([22]; 320 g/ha): 80%; Post-emergence action against VERPE in % ([23]; 320 g/ha, VERPE): 90%; Post-emergence action against VERPE in % ([23]; dosage 80 g/ha): 80%; Pre-emergence action against ZEAMX in % (Zea mays (ZEAMX) [26]): 10%; Pre-emergence action against MATIN in % ([24]; dosage 80 g/ha): 80%; Pre-emergence action against MATIN in % ([24]; dosage 320 g/ha): 90%; Post-emergence action against VIOTR in % (Viola tricolor (VIOTR) [27]): 80%; Post-emergence action against ECHCG in % ([25]; dosage 80 g/ha): 90%; Post-emergence action against ECHCG in % ([25]; dosage 320 g/ha): 100%
